Results: the supplement of paper PMC11451515

Columns and labels:
Details in all cases: 48 h
SEM cells [1] = test: AUC of viability dose-response curve (% viability x log10 dose units); higher = less sensitive
Method in brief: (§1)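 Viability of medium-adapted leukemia cells was measured by CellTiter-Glo One luminescence after 48 h at 37°C with library compounds in DMSO. Doses were 11 threefold steps from 47 μM to 0.79 nM, in 1536-well plates at 500 or 1000 cells/well. Signals were normalised per plate to DMSO and cell-free wells and fitted with a four-parameter log-logistic model on log10 dose. Area under the curve was integrated by trapezoidal rule, with curves exceeding full viability scaled and failed quality-control curves removed.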

P12-Ichikawa [2] = test: as above
Method in brief: as §1

NOMO1 [3] = test: as above
Method in brief: as §1

SEM cells [4] = test: cell viability relative to DMSO control; higher = less cytotoxic
Method in brief: (§2)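 Viability values are per-plate percentages of DMSO wells, with background from cell-free wells. Library compounds in DMSO were pin-dosed, in an 11-point threefold series from 47 μM to 0.79 nM, onto NOMO1 or SEM (500 cells/well) or P12-Ichikawa (1000 cells/well) leukemia cells in 1536-well plates (5 μl). Those cells had been adapted for at least four passages in each medium, and CellTiter-Glo One luminescence was read after 48 h at 37°C.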

P12-Ichikawa [5] = test: as above
Method in brief: as §2

NOMO1 [6] = test: as above
Method in brief: as §2

CC(=O)O[C@@]12CO[C@@H]1C[C@H](O)[C@]3(C)[C@@H]2[C@H](OC(=O)C4=CC=CC=C4)[C@]5(O)C[C@H](OC(=O)C(O)[C@@H](NC(=O)OC(C)(C)C)C6=CC=CC=C6)C(=C(/[C@@H](O)C3=O)C5(C)C)/C (stereo not given in full)
AUC of viability dose-response curve
Details | NOMO1 [3] | P12-Ichikawa [2] | SEM cells [1]
HPLM + 10% dialyzed FBS | 147 | 126 | 112
RPMI 5 mM glucose + 10% FBS | 112 | 125 | 78.5
RPMI 5 mM glucose + 10% dialyzed FBS | 118 | 174 | 86.9

cell viability [%]
Details | NOMO1 [6] | P12-Ichikawa [5] | SEM cells [4]
HPLM + 10% dialyzed FBS, 0.000781 µM | 32.4 | 28 | 23.5
HPLM + 10% dialyzed FBS, 0.00234 µM | 37.3 | 36.3 | 25.1
HPLM + 10% dialyzed FBS, 0.00702 µM | 34.7 | 37.7 | 25.4
HPLM + 10% dialyzed FBS, 0.0211 µM | 39.4 | 38 | 26
HPLM + 10% dialyzed FBS, 0.0632 µM | 42 | 42.2 | 26.5
HPLM + 10% dialyzed FBS, 0.19 µM | 43 | 40.1 | 27.2
HPLM + 10% dialyzed FBS, 0.569 µM | 31.7 | 24.8 | 26.1
HPLM + 10% dialyzed FBS, 1.71 µM | 27.4 | 19.8 | 23.3
HPLM + 10% dialyzed FBS, 5.12 µM | 27.7 | 8.29 | 22.7
HPLM + 10% dialyzed FBS, 15.4 µM | 7.8 | 4.99 | 18.6
HPLM + 10% dialyzed FBS, 46.1 µM | 5.55 | 3.29 | 5.16
RPMI 5 mM glucose + 10% FBS, 0.000781 µM | 23.9 | 33.6 | 13.7
RPMI 5 mM glucose + 10% FBS, 0.00234 µM | 27 | 32.1 | 22
RPMI 5 mM glucose + 10% FBS, 0.00702 µM | 25.5 | 35.6 | 21.2
RPMI 5 mM glucose + 10% FBS, 0.0211 µM | 28.9 | 35.2 | 18.1
RPMI 5 mM glucose + 10% FBS, 0.0632 µM | 28.2 | 37.2 | 20.1
RPMI 5 mM glucose + 10% FBS, 0.19 µM | 27.1 | 34.8 | 20.7
RPMI 5 mM glucose + 10% FBS, 0.569 µM | 24.7 | 25.5 | 18.1
RPMI 5 mM glucose + 10% FBS, 1.71 µM | 24.8 | 25.5 | 16.7
RPMI 5 mM glucose + 10% FBS, 5.12 µM | 20 | 11.8 | 12.1
RPMI 5 mM glucose + 10% FBS, 15.4 µM | 12.6 | 6.81 | 9.57
RPMI 5 mM glucose + 10% FBS, 46.1 µM | 8.59 | 3.21 | 4.28
RPMI 5 mM glucose + 10% dialyzed FBS, 0.000781 µM | 25.2 | 42.5 | 23.4
RPMI 5 mM glucose + 10% dialyzed FBS, 0.00234 µM | 30.6 | 46.4 | 21.1
RPMI 5 mM glucose + 10% dialyzed FBS, 0.00702 µM | 27.8 | 48.1 | 23
RPMI 5 mM glucose + 10% dialyzed FBS, 0.0211 µM | 31.5 | 57.5 | 21.2
RPMI 5 mM glucose + 10% dialyzed FBS, 0.0632 µM | 28.9 | 49.4 | 21.4
RPMI 5 mM glucose + 10% dialyzed FBS, 0.19 µM | 29.7 | 51.4 | 19.5
RPMI 5 mM glucose + 10% dialyzed FBS, 0.569 µM | 27.3 | 40.2 | 18.9
RPMI 5 mM glucose + 10% dialyzed FBS, 1.71 µM | 26.2 | 31.5 | 16.7
RPMI 5 mM glucose + 10% dialyzed FBS, 5.12 µM | 18.8 | 15.5 | 16.5
RPMI 5 mM glucose + 10% dialyzed FBS, 15.4 µM | 11 | 5.67 | 10.5
RPMI 5 mM glucose + 10% dialyzed FBS, 46.1 µM | 9.95 | 2.26 | 2.56

CC(=O)[C@H]1CC[C@H]2[C@@H]3CCC4=CC(=O)CC[C@]4(C)[C@H]3CC[C@]12C
AUC of viability dose-response curve
Details | NOMO1 [3] | P12-Ichikawa [2] | SEM cells [1]
HPLM + 10% dialyzed FBS | 454 | 465 | 432
RPMI 5 mM glucose + 10% FBS | 447 | 455 | 470
RPMI 5 mM glucose + 10% dialyzed FBS | 433 | 465 | 456

cell viability [%]
Details | NOMO1 [6] | P12-Ichikawa [5] | SEM cells [4]
HPLM + 10% dialyzed FBS, 0.000781 µM | 110 | 106 | 69
HPLM + 10% dialyzed FBS, 0.00234 µM | 122 | 114 | 83.5
HPLM + 10% dialyzed FBS, 0.00702 µM | 140 | 120 | 89.4
HPLM + 10% dialyzed FBS, 0.0211 µM | 136 | 112 | 92.3
HPLM + 10% dialyzed FBS, 0.0632 µM | 127 | 118 | 82.1
HPLM + 10% dialyzed FBS, 0.19 µM | 120 | 115 | 102
HPLM + 10% dialyzed FBS, 0.569 µM | 123 | 125 | 103
HPLM + 10% dialyzed FBS, 1.71 µM | 133 | 118 | 97
HPLM + 10% dialyzed FBS, 5.12 µM | 139 | 109 | 88.7
HPLM + 10% dialyzed FBS, 15.4 µM | 115 | 94.7 | 88.1
HPLM + 10% dialyzed FBS, 46.1 µM | 147 | 110 | 92.7
RPMI 5 mM glucose + 10% FBS, 0.000781 µM | 116 | – | 98
RPMI 5 mM glucose + 10% FBS, 0.00234 µM | 109 | – | 96.9
RPMI 5 mM glucose + 10% FBS, 0.00702 µM | 122 | – | 102
RPMI 5 mM glucose + 10% FBS, 0.0211 µM | 120 | – | 113
RPMI 5 mM glucose + 10% FBS, 0.0632 µM | 116 | – | 113
RPMI 5 mM glucose + 10% FBS, 0.19 µM | 111 | – | 116
RPMI 5 mM glucose + 10% FBS, 0.569 µM | 114 | – | 120
RPMI 5 mM glucose + 10% FBS, 1.71 µM | 123 | – | 106
RPMI 5 mM glucose + 10% FBS, 5.12 µM | 128 | – | 96.7
RPMI 5 mM glucose + 10% FBS, 15.4 µM | 120 | – | 101
RPMI 5 mM glucose + 10% FBS, 46.1 µM | 133 | – | 92.8
RPMI 5 mM glucose + 10% dialyzed FBS, 0.000781 µM | 114 | 98.1 | 108
RPMI 5 mM glucose + 10% dialyzed FBS, 0.00234 µM | 121 | 112 | 92.7
RPMI 5 mM glucose + 10% dialyzed FBS, 0.00702 µM | 134 | 108 | 103
RPMI 5 mM glucose + 10% dialyzed FBS, 0.0211 µM | 134 | 118 | 109
RPMI 5 mM glucose + 10% dialyzed FBS, 0.0632 µM | 127 | 120 | 103
RPMI 5 mM glucose + 10% dialyzed FBS, 0.19 µM | 135 | 125 | 119
RPMI 5 mM glucose + 10% dialyzed FBS, 0.569 µM | 136 | 120 | 106
RPMI 5 mM glucose + 10% dialyzed FBS, 1.71 µM | 141 | 116 | 117
RPMI 5 mM glucose + 10% dialyzed FBS, 5.12 µM | 158 | 105 | 90.8
RPMI 5 mM glucose + 10% dialyzed FBS, 15.4 µM | 140 | 91.9 | 81.7
RPMI 5 mM glucose + 10% dialyzed FBS, 46.1 µM | 150 | 114 | 90.7
